The source of these data is US9353082B2, “Pharmaceutical compounds” (BIAL—PORTELA & CA, S.A., priority 2008, dated 2016).

Each structure is given as a SMILES string. Structures can show the parent of a compound that is named as a salt.

Experiment [1] addresses T1, FAAH (Mus musculus, UniProt O08914).
T1 construct: A fragment of liver, left lung lobe and brain without cerebellum were removed; from tissue; host or cells: male NMRI mice; brain (without cerebellum) and liver homogenates
T1 sequence (O08914 1-579): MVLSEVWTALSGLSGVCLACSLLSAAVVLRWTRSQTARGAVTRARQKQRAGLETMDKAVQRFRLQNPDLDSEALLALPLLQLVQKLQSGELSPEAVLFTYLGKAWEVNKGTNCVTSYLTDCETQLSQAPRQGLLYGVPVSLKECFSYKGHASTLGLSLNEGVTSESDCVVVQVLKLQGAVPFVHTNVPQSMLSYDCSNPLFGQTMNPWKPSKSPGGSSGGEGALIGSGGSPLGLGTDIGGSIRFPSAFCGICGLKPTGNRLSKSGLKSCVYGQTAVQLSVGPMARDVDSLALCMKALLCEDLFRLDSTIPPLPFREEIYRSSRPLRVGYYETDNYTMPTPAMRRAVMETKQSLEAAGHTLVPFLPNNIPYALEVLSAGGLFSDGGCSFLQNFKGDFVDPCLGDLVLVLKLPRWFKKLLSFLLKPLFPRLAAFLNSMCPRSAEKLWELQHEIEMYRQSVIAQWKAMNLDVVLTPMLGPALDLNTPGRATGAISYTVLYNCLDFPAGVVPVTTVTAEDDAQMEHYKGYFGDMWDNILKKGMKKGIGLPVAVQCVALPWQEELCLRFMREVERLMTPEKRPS
Description: In vivo FAAH inhibition after oral dosing, remaining activity in brain homogenate (BRh, central nervous tissue). Details: species or system NMRI mice. As to conditions: brain homogenate, 3 mg/kg, 8 h after dosing; low value = strong inhibitor. On the procedure: (§1) The in vivo test was performed according to the protocol described below. BRh indicates inhibition in central nervous tissue and LVh indicates inhibition in peripheral tissue, in this case liver.
(§2) The animals used for experiments were male NMRI mice (weighing 27-44 g) obtained from Interfauna Ibérica (Spain). Mice were kept 5 per cage, under controlled environmental conditions (12 hr light/dark cycle and room temperature 22±1° C.). Food and tap water were allowed ad libitum and the experiments were all carried out during daylight hours.
(§3) Animals were administered 30 mg/kg or 3 mg/kg compounds of the invention via oral route (8 ml/kg; compound suspended in 0.5% carboxymethylcellulose (CMC) or solubilized in water) or vehicle (controls) using animal feeding stainless steel curve needles (Perfectum, U.S.A.). Fifteen minutes before sacrifice animal were anesthetized with pentobarbital 60 mg/kg administered intraperitoneally. A fragment of liver, left lung lobe and brain without cerebellum were removed and put in plastic vials containing membrane buffer (3 mM MgCl2, 1 mM EDTA, 50 mM Tris HCl pH 7.4). Tissues were stored at −30° C. until analysis.
(§4) Animals were always fasted overnight before administration of compounds except for time points of >18 h, where food was removed on the morning of day of administration and the compound was administered in the afternoon of the same day. Animals were then given water but nothing else.
(§5) Tissues were thawed on ice and were homogenized in 10 volumes of membrane buffer (3 mM MgCl2, 1 mM EDTA, 50 mM Tris HCl pH 7.4) with either Potter-Elvejhem (brains—8 strokes at 500 rpm) or Heidolph Diax (livers—2 strokes at position 5 for 20 sec with 30 sec pauses).
(§6) Total protein in tissues was determined with the BioRad Protein Assay (BioRad) using a standard curve of BSA (50-250 μg/ml).
(§7) Reaction mix (total volume of 200 μl) contained: […] (2 μM AEA+5 nM ^3H-AEA), 0.1% fatty acid free BSA, 15 μg (brain), 5 μg (liver) or 50 μg (lung) protein, in 1 mM EDTA, 10 mM Tris pH 7.6. After a […] pre-incubation period at 37° C., reaction was started by the addition of the substrate solution (cold AEA+radiolabelled AEA+BSA). Reaction was carried out for 10 min (brain and lung) or […] (liver) before termination by the addition of 400 μl activated charcoal suspension (8 g charcoal in 32 ml 0.5 M HCl in continuous agitation). After a […] incubation period at room temperature with agitation, charcoal was sedimented by centrifugation in microfuge (10 min at 13000 rpm). 200 μl of the supernatant were added to 800 μl Optiphase Supermix scintillation cocktail previously distributed in 24-well plates. Counts per minute (cpm) were determined in a MicrobetaTriLux scintillation counter.
(§8) In each assay blanks (without protein) were prepared.
(§9) The percentage of remaining enzymatic activity was calculated in respect to controls and after blank subtraction.

For experiment [2], the target named is T1, FAAH. Description: In vivo FAAH inhibition after oral dosing, remaining activity in liver homogenate (LVh, peripheral tissue). The settings on record: liver homogenate, 3 mg/kg, 8 h after dosing; low value = strong inhibitor. Details: species or system NMRI mice. The method, then: as §1, §2, §3, §4, §5, §6, §7, §8, §9

As to `CN(C(=O)n1cnc(-c2ccc(S(=O)(=O)N3CCC(OCc4ccccc4)CC3)cc2)c1)C1CCCCC1` [Compound no. 415, 4-(4-(4-(benzyloxy)piperidin-1-ylsulfonyl)phenyl)-N-cyclohexyl-N-methyl-1H-imidazole-1-carboxamide], the “In Vivo BRh 3 mg·kg 8 h (remaining FAAH activity, % of control)” value on FAAH [1] was 109.1 % of control. In addition, the “In Vivo LVh 3 mg·kg 8 h (remaining FAAH activity, % of control)” value on FAAH [2] is on record as 95.4 % of control.
As to `COc1ccc(-c2cn(C(=O)N(C)C3CCN(Cc4ccccc4)CC3)cn2)cc1` [Compound no. 419, N-(1-benzylpiperidin-4-yl)-4-(4-methoxyphenyl)-N-methyl-1H-imidazole-1-carboxamide], the “In Vivo BRh 3 mg·kg 8 h (remaining FAAH activity, % of control)” value at FAAH [1] is listed as 0.8 % of control. For the same molecule, at FAAH [2], the “In Vivo LVh 3 mg·kg 8 h (remaining FAAH activity, % of control)” value is on record as 1 % of control.
The corresponding values for `CN(C(=O)n1cnc(-c2ccc(S(C)(=O)=O)cc2)c1)C1CCCCC1` [Compound no. 422, N-cyclohexyl-N-methyl-4-(4-(methylsulfonyl)phenyl)-1H-imidazole-1-carboxamide] are 1.7 % of control and 2.7 % of control.
The corresponding values for `CN(C(=O)n1cnc(-c2cccc(C(=O)NO)c2)c1)C1CCN(Cc2ccccc2)CC1` [Compound no. 423, N-(1-benzylpiperidin-4-yl)-4-(3-(hydroxycarbamoyl)phenyl)-N-methyl-1H-imidazole-1-carboxamide] are 90 % of control and 2.1 % of control.
As for `CN(C(=O)n1cnc(-c2cccc(C(=O)NO)c2)c1)C1CCCCC1` [Compound no. 424, N-cyclohexyl-4-(3-(hydroxycarbamoyl)phenyl)-N-methyl-1H-imidazole-1-carboxamide], on FAAH [1], the “In Vivo BRh 3 mg·kg 8 h (remaining FAAH activity, % of control)” value is given as 1 % of control. The “In Vivo LVh 3 mg·kg 8 h (remaining FAAH activity, % of control)” value at FAAH [2] was 0.5 % of control.
Regarding `CN(C(=O)n1cnc(-c2ccc(NCc3ccccc3)c([N+](=O)[O-])c2)c1)C1CCCCC1` [Compound no. 425, 4-(4-(benzylamino)-3-nitrophenyl)-N-cyclohexyl-N-methyl-1H-imidazole-1-carboxamide], the “In Vivo BRh 3 mg·kg 8 h (remaining FAAH activity, % of control)” value on FAAH [1] was 111.4 % of control. Further, at FAAH [2], the “In Vivo LVh 3 mg·kg 8 h (remaining FAAH activity, % of control)” value is on record as 104.6 % of control.
The matching figures for `CN(C(=O)n1cnc(-c2ccc3c(c2)[nH]c(=O)n3Cc2ccccc2)c1)C1CCCCC1` [Compound no. 426, 4-(1-benzyl-2-oxo-2,3-dihydro-1H-benzo[d]imidazol-5-yl)-N-cyclohexyl-N-methyl-1H-imidazole-1-carboxamide]: 96.9 % of control and 115.8 % of control.
On to `CN(C(=O)n1cnc(-c2ccc(S(=O)(=O)N3CCC(O)CC3)cc2)c1)C1CCCCC1` [Compound no. 432, N-cyclohexyl-4-(4-(4-hydroxypiperidin-1-ylsulfonyl)phenyl)-N-methyl-1H-imidazole-1-carboxamide], for which the “In Vivo BRh 3 mg·kg 8 h (remaining FAAH activity, % of control)” value on FAAH [1] is on record as 96.1 % of control. Moreover, on FAAH [2], the “In Vivo LVh 3 mg·kg 8 h (remaining FAAH activity, % of control)” value is 65.5 % of control.
The corresponding values for `CN(C)c1ccc(-c2cn(C(=O)N(C)C3CCCCC3)cn2)cc1[N+](=O)[O-]` [Compound no. 435, N-cyclohexyl-4-(4-(dimethylamino)-3-nitrophenyl)-N-methyl-1H-imidazole-1-carboxamide] are 4.3 % of control and 4.9 % of control.
`COc1ccc(-c2cn(C(=O)N(C)C3CCCCC3)cn2)cc1-c1nn[nH]n1` [Compound no. 438, N-cyclohexyl-4-(4-methoxy-3-(2H-tetrazol-5-yl)phenyl)-N-methyl-1H-imidazole-1-carboxamide]: the “In Vivo BRh 3 mg·kg 8 h (remaining FAAH activity, % of control)” value at FAAH [1] was 92.4 % of control. Moreover, the “In Vivo LVh 3 mg·kg 8 h (remaining FAAH activity, % of control)” value on FAAH [2] is listed as 6.1 % of control.
As to `CN(C(=O)n1cnc(-c2ccc(O)c(-c3nn[nH]n3)c2)c1)C1CCCCC1` [Compound no. 439, N-cyclohexyl-4-(4-hydroxy-3-(2H-tetrazol-5-yl)phenyl)-N-methyl-1H-imidazole-1-carboxamide], the “In Vivo BRh 3 mg·kg 8 h (remaining FAAH activity, % of control)” value at FAAH [1] is 94.4 % of control. On FAAH [2], the “In Vivo LVh 3 mg·kg 8 h (remaining FAAH activity, % of control)” value is recorded as 58.6 % of control.
Turning to `CC1(C)COCN1C(=O)n1nnc2cc(C(=O)NO)ccc21` [Compound no. 440, 1-(4,4-dimethyloxazolidine-3-carbonyl)-N-hydroxy-1H-benzo[d][1,2,3]triazole-5-carboxamide], at FAAH [1], the “In Vivo BRh 3 mg·kg 8 h (remaining FAAH activity, % of control)” value is recorded as 23.2 % of control. Moreover, the “In Vivo LVh 3 mg·kg 8 h (remaining FAAH activity, % of control)” value on FAAH [2] is on record as 3.3 % of control.
The matching figures for `CN(C)c1ccc(-c2cn(C(=O)N(C)C3CCCCC3)cn2)cc1N` [Compound no. 447, 4-(3-amino-4-(dimethylamino)phenyl)-N-cyclohexyl-N-methyl-1H-imidazole-1-carboxamide]: 11.8 % of control and 6.5 % of control.
The corresponding values for `COc1ccc(-c2cn(C(=O)N(C)C3CCNCC3)cn2)cc1N` [Compound no. 450, 4-(3-amino-4-methoxyphenyl)-N-methyl-N-(piperidin-4-yl)-1H-imidazole-1-carboxamide] are 114.2 % of control and 65.4 % of control.
In the case of `CN(C(=O)n1cnc(-c2ccc(O)cc2)c1)C1CCN(Cc2ccccc2)CC1` [Compound no. 451, N-(1-benzylpiperidin-4-yl)-4-(4-hydroxyphenyl)-N-methyl-1H-imidazole-1-carboxamide hydrobromide], the “In Vivo BRh 3 mg·kg 8 h (remaining FAAH activity, % of control)” value on FAAH [1] is listed as 1.1 % of control. In addition, the “In Vivo LVh 3 mg·kg 8 h (remaining FAAH activity, % of control)” value at FAAH [2] is listed as 0.3 % of control.
The corresponding values for `Br.CN(C(=O)n1cnc(-c2ccc(O)c(F)c2)c1)C1CCN(Cc2ccccc2)CC1` [Compound no. 454, N-(1-benzylpiperidin-4-yl)-4-(3-fluoro-4-hydroxyphenyl)-N-methyl-1H-imidazole-1-carboxamide hydrobromide] are 3.1 % of control and 3 % of control.
As to `Br.CN(C(=O)n1cnc(-c2ccc(O)c([N+](=O)[O-])c2)c1)C1CCN(Cc2ccccc2)CC1` [Compound no. 457, N-(1-benzylpiperidin-4-yl)-4-(4-hydroxy-3-nitrophenyl)-N-methyl-1H-imidazole-1-carboxamide hydrobromide], the “In Vivo BRh 3 mg·kg 8 h (remaining FAAH activity, % of control)” value on FAAH [1] is 28.1 % of control. Moreover, the “In Vivo LVh 3 mg·kg 8 h (remaining FAAH activity, % of control)” value at FAAH [2] is 10.6 % of control.
The matching figures for `CN(C(=O)n1cnc(-c2ccc[n+]([O-])c2)c1)C1CCN(Cc2ccccc2)CC1` [Compound no. 459, 3-(1-((1-benzylpiperidin-4-yl)(methyl)carbamoyl)-1H-imidazol-4-yl)pyridine 1-oxide]: 1.3 % of control and 1.9 % of control.
